This assay deals with T1, SIRT1 (Homo sapiens, UniProt Q96EB6).
T1 construct: His-tag (N); made in house; host or cells: E. coli BL21(DE3), T7-promoter vector
T1 sequence (Q96EB6 1-747): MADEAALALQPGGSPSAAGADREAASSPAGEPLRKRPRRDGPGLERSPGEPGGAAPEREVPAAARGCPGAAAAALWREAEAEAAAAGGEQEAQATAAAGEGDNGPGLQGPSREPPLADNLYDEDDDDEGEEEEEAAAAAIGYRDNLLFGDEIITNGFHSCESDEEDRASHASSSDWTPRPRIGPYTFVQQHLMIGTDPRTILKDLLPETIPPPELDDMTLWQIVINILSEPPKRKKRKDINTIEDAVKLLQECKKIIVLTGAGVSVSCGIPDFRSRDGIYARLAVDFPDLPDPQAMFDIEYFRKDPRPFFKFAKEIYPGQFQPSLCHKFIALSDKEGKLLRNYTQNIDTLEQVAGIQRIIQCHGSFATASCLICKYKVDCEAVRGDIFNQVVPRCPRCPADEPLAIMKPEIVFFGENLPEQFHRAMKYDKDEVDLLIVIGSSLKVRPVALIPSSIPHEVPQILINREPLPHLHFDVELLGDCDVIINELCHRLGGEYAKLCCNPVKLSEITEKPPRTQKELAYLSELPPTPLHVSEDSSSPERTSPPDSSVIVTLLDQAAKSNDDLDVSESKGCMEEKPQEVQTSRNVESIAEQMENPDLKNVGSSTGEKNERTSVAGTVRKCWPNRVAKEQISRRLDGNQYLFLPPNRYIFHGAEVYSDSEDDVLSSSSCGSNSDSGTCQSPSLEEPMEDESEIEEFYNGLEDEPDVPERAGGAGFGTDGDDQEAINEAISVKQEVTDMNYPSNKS
Briefly: Mass spectrometry based assay for modulators of SIRT1 activity (deacetylation of p53-based acetylated peptide). Conditions: for EC1.5: concentration of test compound that results in 150% activation of SIRT1, 0.5 μM peptide substrate, 120 μM βNAD+, 10 nM SIRT1, 25 min, 25° C.; for Emax: percent maximum fold activation of SIRT1. The format is biochemical. A digest of the protocol:
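Reaction: 10 nM His-tagged human SIRT1 (E. coli-expressed) with 0.5 μM 5TMR-labelled acetylated p53-derived peptide and 120 μM NAD+, 25 min at 25 °C, pH 8 Tris-acetate buffer; formic acid quench. Deacetylation quantified by mass spectrometry against a DMSO control; EC1.5 = concentration giving 150% activation.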

Where only a bound is given, the exact number is not on record here.

What is called Emax is the size of the effect at its maximum, as opposed to the concentration needed.

Consider `O=C(Nc1nccs1)c1cccn2nc(-c3cc(Cl)ccc3C(F)(F)F)nc12` [Compound 223], for which the EC1.5 result was “B (EC1.5 1-25 uM)” and the Emax is less than 200%.
Taken in the same sequence, the figures for `O=C(Nc1ccccn1)c1cccn2nc(-c3cc(Cl)ccc3C(F)(F)F)nc12` [Compound 224] were “B (EC1.5 1-25 uM)” and less than 200%.
The matching figures for `O=C(Nc1nccs1)c1cccn2nc(-c3ccccc3OC(F)F)nc12` [Compound 225]: “B (EC1.5 1-25 uM)” and greater than 200%.
`O=C(Nc1ccccn1)c1cccn2nc(-c3ccccc3OC(F)F)nc12` [Compound 226]: the EC1.5 entry is listed as “B (EC1.5 1-25 uM)” and the Emax is greater than 200%.
For `O=C(Nc1nccs1)c1cccn2nc(-c3ccccc3OC(F)(F)F)nc12` [Compound 227], the EC1.5 entry is listed as “B (EC1.5 1-25 uM)” and the Emax was greater than 200%.
In the case of `O=C(Nc1ccccn1)c1cccn2nc(-c3ccccc3OC(F)(F)F)nc12` [Compound 228], the EC1.5 entry was “B (EC1.5 1-25 uM)” and the Emax is greater than 200%.
For the compound `Cc1nc(C)c(-c2nc3c(C(=O)Nc4nccs4)cccn3n2)s1` [Compound 229], the EC1.5 entry was “C (EC1.5>25 uM)” and the Emax was less than 200%.
Taken in the same sequence, the figures for `Cc1nc(C)c(-c2nc3c(C(=O)Nc4ccccn4)cccn3n2)s1` [Compound 230] were “C (EC1.5>25 uM)” and less than 200%.
In the case of `O=C(Nc1nc(CN2CCOCC2)cs1)c1cccn2cc(-c3cccc(F)c3F)nc12` [Compound 231], the EC1.5 result is listed as “B (EC1.5 1-25 uM)” and the Emax was less than 200%.
The matching figures for `O=C(Nc1cccc(CN2CCOCC2)n1)c1cccn2cc(-c3cccc(F)c3F)nc12` [Compound 232]: “B (EC1.5 1-25 uM)” and less than 200%.
The matching figures for `O=C(Nc1nc(CN2CCOCC2)cs1)c1cccn2cc(-c3cccc(Cl)c3)nc12` [Compound 233]: “A (EC1.5<1.0 uM)” and greater than 200%.
On to `O=C(Nc1cccc(CN2CCOCC2)n1)c1cccn2cc(-c3cccc(Cl)c3)nc12` [Compound 234], for which the EC1.5 entry is listed as “A (EC1.5<1.0 uM)” and the Emax was greater than 200%.
Taken in the same sequence, the figures for `O=C(Nc1nc(CN2CCOCC2)cs1)c1cccn2cc(-c3ccc(F)c(Cl)c3)nc12` [Compound 235] were “A (EC1.5<1.0 uM)” and greater than 200%.
The matching figures for `O=C(Nc1cccc(CN2CCOCC2)n1)c1cccn2cc(-c3ccc(F)c(Cl)c3)nc12` [Compound 236]: “A (EC1.5<1.0 uM)” and greater than 200%.
For `O=C(Nc1nc(CN2CCOCC2)cs1)c1cccn2cc(-c3ccc(F)cc3C(F)(F)F)nc12` [Compound 237], the EC1.5 result is given as “A (EC1.5<1.0 uM)” and the Emax is greater than 200%.
As for `O=C(Nc1cccc(CN2CCOCC2)n1)c1cccn2cc(-c3ccc(F)cc3C(F)(F)F)nc12` [Compound 238], the EC1.5 result was “A (EC1.5<1.0 uM)” and the Emax is greater than 200%.
Take `Cc1ncccc1-c1nc2c(C(=O)Nc3nccs3)cccn2n1` [Compound 239, 2-(2-methylpyridin-3-yl)-N-(thiazol-2-yl)-[1,2,4]triazolo[1,5-a]pyridine-8-carboxamide]: the EC1.5 entry is given as “C (EC1.5>25 uM)” and the Emax is less than 200%.
In the case of `Cc1ncccc1-c1nc2c(C(=O)Nc3ccccn3)cccn2n1` [Compound 240], the EC1.5 entry is on record as “C (EC1.5>25 uM)” and the Emax is less than 200%.
The matching figures for `Cc1ncccc1-c1nc2c(C(=O)Nc3nc(CN4CCOCC4)cs3)cccn2n1` [Compound 241]: “B (EC1.5 1-25 uM)” and less than 200%.
Regarding `Cc1ncccc1-c1nc2c(C(=O)Nc3cccc(CN4CCOCC4)n3)cccn2n1` [Compound 242], the EC1.5 result is on record as “B (EC1.5 1-25 uM)” and the Emax is greater than 200%.
Consider `O=C(Nc1cccnn1)c1nccn2cc(-c3ccccc3OC(F)(F)F)nc12` [Compound 243], for which the EC1.5 result was “B (EC1.5 1-25 uM)” and the Emax is greater than 200%.
The matching figures for `O=C(Nc1ccncn1)c1nccn2cc(-c3ccccc3OC(F)(F)F)nc12` [Compound 244]: “B (EC1.5 1-25 uM)” and greater than 200%.
Take `O=C(Nc1cnccn1)c1nccn2cc(-c3ccccc3OC(F)(F)F)nc12` [Compound 245]: the EC1.5 result is listed as “A (EC1.5<1.0 uM)” and the Emax was greater than 200%.
Taken in the same sequence, the figures for `O=C(Nc1ccncn1)c1nccn2cc(-c3ccc(F)cc3C(F)(F)F)nc12` [Compound 246] were “A (EC1.5<1.0 uM)” and greater than 200%.
Taken in the same sequence, the figures for `O=C(Nc1cnccn1)c1nccn2cc(-c3ccc(F)cc3C(F)(F)F)nc12` [Compound 247] were “B (EC1.5 1-25 uM)” and greater than 200%.
Taken in the same sequence, the figures for `O=C(Nc1ccccn1)c1cccn2nc(-c3ccc(OCCN4CCOCC4)cc3C(F)F)nc12` [Compound 248] were “B (EC1.5 1-25 uM)” and greater than 200%.
With `O=C(Nc1ccccn1)c1cccn2nc(-c3ccc(OC[C@@H](O)CO)cc3C(F)F)nc12` [Compound 250], the EC1.5 entry is on record as “B (EC1.5 1-25 uM)” and the Emax is greater than 200%.
On to `O=C(Nc1ccccn1)c1cccn2cc(-c3ccc(CN4CCOCC4)cc3)nc12` [Compound 251], for which the EC1.5 entry is “B (EC1.5 1-25 uM)” and the Emax was greater than 200%.
`O=C(Nc1nccs1)c1cccn2cc(-c3ccc(CN4CCCC4)cc3)nc12` [Compound 252]: the EC1.5 result is reported as “B (EC1.5 1-25 uM)” and the Emax is greater than 200%.
For the compound `O=C(Nc1ccccn1)c1cccn2cc(-c3ccc(CN4CCCC4)cc3)nc12` [Compound 253], the EC1.5 entry was “B (EC1.5 1-25 uM)” and the Emax was greater than 200%.
The matching figures for `O=C(Nc1nccs1)c1cccn2cc(-c3cccc(CN4CCOCC4)c3)nc12` [Compound 254]: “A (EC1.5<1.0 uM)” and greater than 200%.
The matching figures for `O=C(Nc1ccccn1)c1cccn2cc(-c3cccc(CN4CCOCC4)c3)nc12` [Compound 255]: “A (EC1.5<1.0 uM)” and greater than 200%.
Taken in the same sequence, the figures for `O=C(Nc1nccs1)c1cccn2cc(-c3cccc(CN4CCCC4)c3)nc12` [Compound 256] were “B (EC1.5 1-25 uM)” and greater than 200%.
Consider `O=C(Nc1ccccn1)c1cccn2cc(-c3cccc(CN4CCCC4)c3)nc12` [Compound 257], for which the EC1.5 entry was “B (EC1.5 1-25 uM)” and the Emax is greater than 200%.
Consider `O=C(Nc1nc(CN2CCOCC2)cs1)c1nccn2cc(-c3ccccc3C(F)(F)F)nc12` [Compound 258], for which the EC1.5 result is “A (EC1.5<1.0 uM)” and the maximal response (Emax) is greater than 200%.
Taken in the same sequence, the figures for `O=C(Nc1cccc(CN2CCOCC2)n1)c1nccn2cc(-c3ccccc3C(F)(F)F)nc12` [Compound 259] were “A (EC1.5<1.0 uM)” and greater than 200%.
Taken in the same sequence, the figures for `O=C(Nc1nc(CN2CCOCC2)cs1)c1nccn2cc(-c3ccc(F)cc3C(F)(F)F)nc12` [Compound 260] were “A (EC1.5<1.0 uM)” and greater than 200%.
The matching figures for `O=C(Nc1cccc(CN2CCOCC2)n1)c1nccn2cc(-c3ccc(F)cc3C(F)(F)F)nc12` [Compound 261]: “A (EC1.5<1.0 uM)” and greater than 200%.

Source of the values: patent publication US20110077248A1, “IMIDAZOPYRIDINE AND RELATED ANALOGS AS SIRTUIN MODULATORS” (Sirtris Pharmaceuticals, Inc., priority 2008, published 2011).
